# Assay results as given in patent US20040033273A1, “Withasol and methods of use” (AyurCore, Inc., priority 2001, published 2004).
# Like-named read-outs stand apart in the source and are kept apart here.
# How the values were obtained:
# [1] = tested on: BALB/c mouse with ascitic sarcoma (S-180)
# Excerpt: A study was then undertaken to determine the kinetics of cyclophosphamide treatment with respect to myelosuppression and immunosuppression. This step four aspect of the protocol establishes a time response curve for cyclophosphamide and determines optimal time for collection of blood samples and evaluation of hematological and serological parameters under the aforementioned conditions.
# Mice were antigenically challenged with 0.5 cc of RBC suspension (1.0×10^8 cells/cc), intraperitoneally on day 1 as previously described. Mice from all groups were sensitized with RBC and a challenge dose was given on day 10.
# Antibody titres were estimated using 96 well, U-bottom microtiter plates, double diluting serum samples and using 10% Human RBC suspension and complement (guinea pig serum).
# [2] = tested on: BALB/c mouse with ascitic sarcoma (S-180); settings: for survival rate: CP 150 mg/kg ip on day 11, compared with the other dose regimens
# [3] = tested on: BALB/c mouse implanted with ascitic sarcoma, CP treated; settings: for Hb / Platelet Count (×10^3mcl) / RBC Count (×10^6/mcl) / WBC Difference Count (%) Lymphocytes / WBC Difference Count (%) Polymorph / WBC Total Count (×10^3/mcl) / CF Titre (Log2) / HA Titre (Log2) / Difference in Weight (g) from Day 1 to 16: mean +/- SD
# Description: This example describes dosing studies of WITHASOL in cyclophosphamide (CP) treated antigenically challenged BALB/c mouse animals implanted with ascitic sarcoma.
# Following the established protocol, tumor was implanted on day 0. Test drugs as suspensions in 2.0% sterile CMC (vehicle) were prepared by Bio-Ved Laboratories. Antigenically sensitized (day 1) and challenged (day 10) mice, received test substances from day 1 to day 15 per oral route. Animals received appropriate vehicle (2.0% CMC) or CP (150 mg/kg) i.p. on day 11 and blood was collected on day 16. Body weights and gross observations were monitored during treatment.
# Four doses, 400 mg/kg, 200 mg/kg, 100 mg/kg and 50 mg/kg of WITHASOL coded as R-1, R-2, R-3 and R-4, respectively, were used for this study. Decoding was done after the study was completed.
# Data analysis was carried out using ANOVA single factor @<0.05 for comparison of the groups.
# [4] = tested on: BALB/c mouse implanted with ascitic sarcoma (S-180), CP treated; settings: for Hb / Platelet Count (×10^3/mcl) / RBC Count (×10^6/mcl) / WBC Difference Count (%) Lymphocytes / WBC Difference Count (%) Polymorph / WBC Total Count (×10^3/mcl) / CF Titre (Log2) / HA Titre (Log2) / Difference in Weight (g) from Day 1 to 16: mean +/- SD
# [5] = CP 150 mg/Kg ip day 11 vs vehicle, days 13, 15, 17, 19 and 21
# [6] = groups I and II: CP 3.0 mg/kg po days 4 to 19 vs vehicle, blood day 20
# [7] = groups III and IV: CP 100 mg/kg ip days 7, 9, 11 vs vehicle, blood day 20
# [8] = groups V and VI: CP 150 mg/kg ip day 11 vs vehicle, blood day 20
# [9] = Tumor +, CP +: CP 150 mg/kg ip day 11, WITHASOL po day 1-15 at 400 (R-1), 200 (R-2), 100 (R-3), 50 (R-4) mg/kg or vehicle (CP alone), blood day 16
# [10] = Tumor +, CP +: CP 150 mg/kg ip day 11, WITHASOL po day 1-15 at 400 (R-1), 200 (R-2), 100 (R-3), 50 (R-4) mg/kg or vehicle (CP alone), day 16
# [11] = Tumor −, CP +, vehicle: CP 150 mg/kg ip day 11, blood day 16
# [12] = Tumor −, CP +, vehicle: CP 150 mg/kg ip day 11, day 16
# [13] = Tumor −, CP +, vehicle: CP 150 mg/kg ip day 11
# [14] = groups I and II: CP 150 mg/kg ip day 11 in tumor-free animals, day 16
# [15] = groups III and IV: CP 150 mg/kg ip day 11 in tumor-bearing animals
# [16] = groups III and IV: CP 150 mg/kg ip day 11 in tumor-bearing animals, day 16
# [17] = Tumor +, CP +: CP 150 mg/kg ip day 11, coded drug 100 mg/kg (vehicle for CP alone) po day 1-15, blood day 16
# [18] = Tumor +, CP +: CP 150 mg/kg ip day 11, coded drug 100 mg/kg (vehicle for CP alone) po day 1-15, serum day 16
# [19] = Tumor −, CP +, vehicle: CP 150 mg/kg ip day 11, serum day 16
# [20] = groups I and II: CP 150 mg/kg ip day 11 in tumor free animals, day 16
compound,measurement,setting,value
"O=P1(N(CCCl)CCCl)NCCCO1 (stereo not shown) [CP, cyclophosphamide]",time of maximum myelosuppressive and immunosuppressive effect,"[1]; CP 150 mg/Kg ip day 11, day after tumor implantation","day 15, or in between day 15 and day 17"
same,change in platelet counts,[1]; CP 150 mg/Kg ip day 11 vs vehicle,unaffected
same,change in hemagglutinating antibody (HA) titers,[1]; [5],decrease
same,change in hemolytic antibody titers (complement fixing-CF),[1]; [5],decrease
same,change in white blood cell counts,"[1]; CP 150 mg/Kg ip day 11 vs vehicle, on day 13 and on day 15",significantly decreased
same,change in hemoglobin content,"[1]; CP 150 mg/Kg ip day 11 vs vehicle, on day 17",significant decrease
same,change in red blood cell counts,"[1]; CP 150 mg/Kg ip day 11 vs vehicle, on day 19 (P<0.09)",increased
same,tumor relapse,"[1]; after a few days of cyclophosphamide treatment (150 mg/Kg ip day 11), animals died from tumor regrowth",Tumor relapse was observed
same,tumor regression,[1]; single cyclophosphamide dose of 150 mg/Kg ip on day 11,regression of tumor
same,survival rate,[2],maximum survival rate
same,survival rate,[2]; listed as cyclophosphamide,greatest survival rate
same,change in weight of animals,"[2]; all three CP doses (3.0 mg/kg po days 4-19; 100 mg/kg ip days 7, 9, 11; 150 mg/kg ip day 11) vs vehicle, t test",significant decrease
same,change in hemoglobin content,[2]; [6],no significant change
same,change in lymphocytes,[2]; [6],no significant change
same,change in monocyte counts,[2]; [6],significantly increased
same,change in neutrophil counts,[2]; [6],significantly lowered
same,change in platelet counts,[2]; [6],no significant change
same,change in red cell counts,[2]; [6],no significant change
same,change in total white cell counts,[2]; [6],significantly lowered
same,change in hemoglobin content,[2]; [7],no significant change
same,change in platelet counts,[2]; [7],no significant change
same,change in red cell counts,[2]; [7],no significant change
same,change in white cell differential counts,[2]; [7],no significant change
same,change in white cell total counts,[2]; [7],no significant change
same,change in hemoglobin content,[2]; [8],no significant change
same,change in monocytes,[2]; [8],no significant change
same,change in neutrophils,[2]; [8],significant increase
same,change in platelet counts,[2]; [8],no significant change
same,change in red cell counts,[2]; [8],no significant change
same,change in white cell counts,[2]; [8],significant increase
same,Survival on Day 16 (Day of Bleeding): No. of Animals Survived,"[3]; Tumor +, CP + groups: CP 150 mg/kg ip day 11, WITHASOL po day 1-15 at 400 (R-1), 200 (R-2), 100 (R-3), 50 (R-4) mg/kg or vehicle (CP alone)",8
same,Hb,[3]; [9],12.8 ± 1.03 g/dL
same,Platelet Count (×10^3mcl),[3]; [9],906.0 +/− 312.76 ×10^3mcl
same,RBC Count (×10^6/mcl),[3]; [9],3.79 +/− 0.46 ×10^6/mcl
same,WBC Difference Count (%) Lymphocytes,[3]; [9],4.19 +/− 8.70%
same,WBC Difference Count (%) Polymorph,[3]; [9],58.1 +/− 8.70%
same,WBC Total Count (×10^3/mcl),[3]; [9],6.2 +/− 2.17 ×10^3/mcl
same,CF Titre (Log2),[3]; [10],3.5 +/− 0.53 Log2
same,HA Titre (Log2),[3]; [10],3.3 +/− 0.89 Log2
same,Difference in Weight (g) from Day 1 to 16,"[3]; Tumor +, CP +: CP 150 mg/kg ip day 11, WITHASOL po day 1-15 at 400 (R-1), 200 (R-2), 100 (R-3), 50 (R-4) mg/kg or vehicle (CP alone)",4.9 ± 2.36 g
same,Survival on Day 16 (Day of Bleeding): No. of Animals Survived,"[3]; Tumor −, CP +, vehicle (group II)",10
same,Hb,[3]; [11],12.9 ± 1.40 g/dL
same,Platelet Count (×10^3mcl),[3]; [11],1170.2 +/− 152.33 ×10^3mcl
same,RBC Count (×10^6/mcl),[3]; [11],4.04 +/− 0.54 ×10^6/mcl
same,WBC Difference Count (%) Lymphocytes,[3]; [11],76.7 +/− 4.35%
same,WBC Difference Count (%) Polymorph,[3]; [11],23.3 +/− 4.35%
same,WBC Total Count (×10^3/mcl),[3]; [11],3.6 +/− 0.67 ×10^3/mcl
same,CF Titre (Log2),[3]; [12],4.0 +/− 0.82 Log2
same,HA Titre (Log2),[3]; [12],4.4 +/− 0.52 Log2
same,Difference in Weight (g) from Day 1 to 16,[3]; [13],0.4 ± 0.52 g
same,change in body weights,[3]; groups I and II: CP 150 mg/kg ip day 11 in tumor-free animals,decreased
same,change in HA antibody titres,[3]; [14],decreased
same,change in HL antibody titres,[3]; [14],decreased
same,change in hemoglobin content,[3]; [14],decreased
same,change in platelet counts,[3]; [14],increased
same,change in red cell counts,[3]; [14],decreased
same,change in white cell differential counts,[3]; [14],no significant change
same,change in white cell total counts,[3]; [14],decreased
same,change in body weights,[3]; [15],decreased
same,change in HA antibody titres,[3]; [16],decreased
same,change in HL antibody titres,[3]; [16],decreased
same,change in hemoglobin content,[3]; [16],no significant change
same,change in lymphocyte percentage,[3]; [16],increased
same,change in platelet counts,[3]; [16],no significant change
same,change in polymorph percentage,[3]; [16],decrease
same,change in red cell counts,[3]; [16],no significant change
same,change in white cell total counts,[3]; [16],decrease
same,Hb,[4]; [17],11.07 ± 3.812 g/dL
same,Platelet Count (×10^3/mcl),[4]; [17],614.17 +/− 287.466 ×10^3/mcl
same,RBC Count (×10^6/mcl),[4]; [17],3.54 +/− 1.332 ×10^6/mcl
same,WBC Difference Count (%) Lymphocytes,[4]; [17],58.18 +/− 8.634%
same,WBC Difference Count (%) Polymorph,[4]; [17],41.42 +/− 8.634%
same,WBC Total Count (×10^3/mcl),[4]; [17],4.53 +/− 0.797 ×10^3/mcl
same,CF Titre (Log2),[4]; [18],1.83 +/− 0.408 Log2
same,HA Titre (Log2),[4]; [18],2.17 +/− 0.837 Log2
same,Difference in Weight (g) from Day 1 to 16,"[4]; Tumor +, CP +: S-180 bearing antigen-challenged mice, CP 150 mg/kg ip day 11, coded drug 100 mg/kg (vehicle for CP alone) po day 1-15",-0.83 ± 2.563 g
same,Hb,[4]; [11],13.8 ± 1.103 g/dL
same,Platelet Count (×10^3/mcl),[4]; [11],966.33 +/− 324.879 ×10^3/mcl
same,RBC Count (×10^6/mcl),[4]; [11],4.37 +/− 0.718 ×10^6/mcl
same,WBC Difference Count (%) Lymphocytes,[4]; [11],63.73 +/− 2.7897%
same,WBC Difference Count (%) Polymorph,[4]; [11],36.2 +/− 2.7897%
same,WBC Total Count (×10^3/mcl),[4]; [11],3.8 +/− 1.226 ×10^3/mcl
same,CF Titre (Log2),[4]; [19],1.00 Log2
same,HA Titre (Log2),[4]; [19],1.5 +/− 5.48 Log2
same,Difference in Weight (g) from Day 1 to 16,[4]; [13],-0.5 ± 0.837 g
same,change in body weights,[4]; groups I and II: CP 150 mg/kg ip day 11 in tumor free animals,decrease
same,change in HA antibody titers,[4]; [20],decreased
same,change in HL antibody titers,[4]; [20],decreased
same,change in hemoglobin content,[4]; [20],No significant change
same,change in lymphocyte percent,[4]; [20],decreased
same,change in platelet counts,[4]; [20],No significant change
same,change in polymorph percent,[4]; [20],Increased
same,change in red cell counts,[4]; [20],lowered
same,change in white cell total counts,[4]; [20],lowered
same,change in body weight,[4]; [15],decreased
same,change in HA antibody titers,[4]; [16],decreased
same,change in HL antibody titers,[4]; [16],decreased
same,change in hemoglobin content,[4]; [16],No significant change
same,change in lymphocyte percentage,[4]; [16],increase
same,change in platelet counts,[4]; [16],Decreased
same,change in polymorph percentage,[4]; [16],Decreased
same,change in red cell counts,[4]; [16],No significant change
same,change in white counts,[4]; [16],Decreased
